Measured values reported in patent EP4385979A1 (Grünenthal GmbH, priority 2022, dated 2024).

The compounds below were run against T1, human NaV1.8 (Homo sapiens, UniProt Q9Y5Y9) (assay: Electrophysiology: voltage-clamp recordings, whole-cell patch clamp on Qube384 automated platform). Conditions: HEK-NaV1.8 (NM 006514.1) with b3 recombinant cell line, multi hole plates, ambient room temperature, read-out: Potency category (human NaV1.8 IC50).
T1 construct: expressed in transfected cells; host or cells: HEK
Assay type: cell-based
Experimental: Electrophysiology: Voltage-Clamp recordings
The following NaV1.8 recombinant cell line was used for recordings: HEK-NaV1.8 (NM 006514.1) with b3 (NM_018400.3).
Sodium currents were measured using the patch clamp technique in the whole-cell configuration using the Qube384 (Sophion A/S, Copenhagen, Denmark) automated voltage clamp platform. "Multi hole" plates were used for the cell line expressing NaV1.8 while "single hole" plates were used for the recombinant cell lines expressing the other subtypes. Appropriate filters (for minimum seal resistance and minimum current size) and series resistance compensation (for high quality sodium channel recordings) were applied. Data was collected at ambient room temperature.
The recording […] solution contained (in mM): NaCl 145 mM, KCl 4 mM, CaCl2 2 mM, MgCl2 1 mM, HEPES 10 mM, Glucose 10 mM, pH 7.4 (NaOH). The […] recording solution contained (in mM): CsF 120 mM, CsCl 20 mM, NaCl 10 mM, EGTA 10 mM, HEPES 10 mM, pH 7.2 (CsOH). Currents were recorded at 25 kHz sampling frequency and filtered at 5 kHz. Series resistance compensation was applied at 65%.
Vehicle (VEH) is the control condition where cells are exposed to 0.3 % DMSO without compound. All runs include VEH controls being exposed to the same voltage protocols to assess non-compound related phenomena such as run down and then used to isolate compound dependent effects on currents.
To check for state-dependence inhibition, the following voltage-sequence was applied every 20 seconds: From a resting membrane potential of-120 mV, the first test pulse (P1; 20 ms to -10 mV) was applied to check for channels in the Resting State followed by a brief recovery (20 ms to -120 mV), then holding the membrane voltage to V1/2 (4 seconds at voltage to obtain half the channel at Rest and half Inactivated) with a subsequent second test pulse (P2; 20 ms to -10 mV) to check for channels in the Inactivated State, followed by another brief recovery (20 ms to -120 mV) and a final third test pulse (P3; 20 ms to -10 mV) to check for recovered channels.
To check for frequency-dependent inhibition, a 10 Hz protocol and a 20 Hz protocol were applied; namely,
From a resting membrane potential of -120 mV, 40-pulses (10 ms to -10 mV) was applied at 10 Hz (at 100 ms between pulses) and then at 20 Hz (at 50 ms between pulses). Each parameter was recorded (P1, P2, P3, P40 from 10Hz and P40 from 20Hz) during a control period (lasting ~ 5 minutes) when establishing the baseline and during compound period (lasting ~ 12 minutes) when test compound (or vehicle) was applied. For each parameter, the value at the end of the compound period was normalized to the vehicle baseline; as follows Normalized Inhibition (NormCPD) = (CPD Valueend CPD period)/(VEH Valueend Control Period) [formula]
To adjust for any variance in the Na^+ current signal during the compound period (owing to cumulative inactivation independent of compound or shifts in biophysics over time), a dedicated segment of the recording wells in each 384 plate were dedicated to having only vehicle exposure. These vehicle-only recordings were used to correct for any apparent "run-up" or "run-down" in the experiment. Normalized Inhibition (NormVEH) = (VEH Valueend CPD period)/(VEH Valueend Control Period) [formula]
The adjusted inhibition was calculated as follows: % Inhibitioncorrected = 100 × (NormCPD −NormVEH)/(100−NormVEH) [formula]
Percent inhibition was determined and IC50 values were calculated using a 4 parameter logistic model within XLFit Software (IDBS, Boston MA): % Inhibitioncorrected = A + ((B−A))/((1 + (((x)/(C)))^D) [formula] where A and B are the maximal and minimum inhibition respectively, C is the IC50 concentration and D is the (Hill) slope.

T1 sequence (Q9Y5Y9 whole entry): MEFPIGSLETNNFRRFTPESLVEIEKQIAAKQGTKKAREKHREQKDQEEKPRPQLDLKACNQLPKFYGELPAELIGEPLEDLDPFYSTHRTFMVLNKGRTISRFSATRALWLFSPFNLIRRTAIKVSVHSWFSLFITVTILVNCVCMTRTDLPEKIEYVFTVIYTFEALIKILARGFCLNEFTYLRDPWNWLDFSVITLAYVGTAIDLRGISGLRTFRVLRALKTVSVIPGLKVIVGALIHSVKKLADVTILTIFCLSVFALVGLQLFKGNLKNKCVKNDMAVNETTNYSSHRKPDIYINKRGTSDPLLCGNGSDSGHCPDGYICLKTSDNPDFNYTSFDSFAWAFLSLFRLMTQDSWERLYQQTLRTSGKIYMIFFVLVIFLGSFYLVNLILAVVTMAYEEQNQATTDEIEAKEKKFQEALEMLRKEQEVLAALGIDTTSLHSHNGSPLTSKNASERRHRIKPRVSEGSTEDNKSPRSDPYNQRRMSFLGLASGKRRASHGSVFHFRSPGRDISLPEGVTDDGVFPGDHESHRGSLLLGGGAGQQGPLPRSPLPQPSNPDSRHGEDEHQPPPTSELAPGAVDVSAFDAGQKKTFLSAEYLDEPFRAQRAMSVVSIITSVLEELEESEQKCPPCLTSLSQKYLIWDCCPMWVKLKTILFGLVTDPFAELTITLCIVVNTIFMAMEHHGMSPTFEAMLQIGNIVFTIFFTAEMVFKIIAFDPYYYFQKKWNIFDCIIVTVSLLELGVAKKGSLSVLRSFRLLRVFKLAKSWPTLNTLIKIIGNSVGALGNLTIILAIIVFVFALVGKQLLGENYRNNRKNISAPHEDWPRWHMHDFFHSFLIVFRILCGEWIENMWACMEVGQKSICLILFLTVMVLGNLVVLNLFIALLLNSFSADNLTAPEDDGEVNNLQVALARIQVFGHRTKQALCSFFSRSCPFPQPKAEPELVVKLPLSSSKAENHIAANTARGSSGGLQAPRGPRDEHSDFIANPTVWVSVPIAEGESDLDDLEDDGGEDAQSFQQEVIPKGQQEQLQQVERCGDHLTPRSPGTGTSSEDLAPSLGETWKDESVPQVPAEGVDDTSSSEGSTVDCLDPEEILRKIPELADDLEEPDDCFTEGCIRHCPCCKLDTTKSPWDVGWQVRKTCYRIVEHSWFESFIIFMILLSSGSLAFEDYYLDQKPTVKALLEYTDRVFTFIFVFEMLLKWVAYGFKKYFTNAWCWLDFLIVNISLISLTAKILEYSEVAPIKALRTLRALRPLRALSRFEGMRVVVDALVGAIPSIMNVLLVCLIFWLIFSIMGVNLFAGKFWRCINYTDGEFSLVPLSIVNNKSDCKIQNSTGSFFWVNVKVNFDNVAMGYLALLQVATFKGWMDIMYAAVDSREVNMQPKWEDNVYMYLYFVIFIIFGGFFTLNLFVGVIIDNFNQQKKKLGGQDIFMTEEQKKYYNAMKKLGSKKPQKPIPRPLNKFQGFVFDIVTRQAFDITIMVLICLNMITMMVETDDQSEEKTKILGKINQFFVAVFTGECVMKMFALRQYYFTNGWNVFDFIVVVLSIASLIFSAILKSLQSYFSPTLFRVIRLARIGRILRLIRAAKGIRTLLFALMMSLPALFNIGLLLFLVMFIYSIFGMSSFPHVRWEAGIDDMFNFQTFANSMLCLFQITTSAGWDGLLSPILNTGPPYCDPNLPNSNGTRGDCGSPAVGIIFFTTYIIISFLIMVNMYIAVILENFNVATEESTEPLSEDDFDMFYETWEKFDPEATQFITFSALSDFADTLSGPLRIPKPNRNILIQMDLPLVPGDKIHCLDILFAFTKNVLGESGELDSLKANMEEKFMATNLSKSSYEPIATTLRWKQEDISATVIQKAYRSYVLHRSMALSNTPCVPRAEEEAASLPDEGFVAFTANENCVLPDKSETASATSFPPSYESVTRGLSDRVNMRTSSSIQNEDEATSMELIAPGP

Row | SMILES | IC50
1 | CS(=O)(=O)c1cc(NC(=O)c2c(C(F)(F)F)c(C3CC3)nn2CC23CC(CO2)C3)ccn1 [Example 24, 1-((2-oxabicyclo[2.1.1]hexan-1-yl)methyl)-3-cyclopropyl-N-(2-(methylsulfonyl)pyridin-4-yl)-4-(trifluoromethyl)-1H-pyrazole-5-carboxamide] | 100 to 1000 nM
2 | Cc1nn(CC23CC(CO2)C3)c(C(=O)Nc2ccc(F)c(C(N)=O)c2)c1C(F)(F)F [Example 39, 1-((2-oxabicyclo[2.1.1]hexan-1-yl)methyl)-N-(3-carbamoyl-4-fluorophenyl)-3-methyl-4-(trifluoromethyl)-1H-pyrazole-5-carboxamide] | 100 to 1000 nM
3 | Cc1c(C(C)(F)F)nn(CC2(C)CC(F)(F)CC2C)c1C(=O)Nc1ccnc(C(N)=O)c1 (single isomer, unassigned) [Example 10b, 4-(1-((4,4-difluoro-1,2-dimethylcyclopentyl)methyl)-3-(1,1-difluoroethyl)-4-methyl-1H-pyrazole-5-carboxamido)picolinamide] | ≤ 100 nM
4 | CC12COC(Cn3nc(C4CC4)c(C(F)(F)F)c3C(=O)Nc3ccnc(S(C)(=O)=O)c3)(C1)C2 [Example 19, 3-cyclopropyl-1-((4-methyl-2-oxabicyclo[2.1.1]hexan-1-yl)methyl)-N-(2-(methylsulfonyl)pyridin-4-yl)-4-(trifluoromethyl)-1H-pyrazole-5-carboxamide] | 100 to 1000 nM
5 | NC(=O)c1cc(NC(=O)c2c(C(F)(F)F)cnn2CC23CC(C2)C3)ccc1F [Example 38, 1-(bicyclo[1.1.1]pentan-1-ylmethyl)-N-(3-carbamoyl-4-fluorophenyl)-4-(trifluoromethyl)-1H-pyrazole-5-carboxamide] | 1000 to 10000 nM
6 | NC(=O)c1cc(NC(=O)c2c(C(F)(F)F)c(C3CC3)nn2CC23CC(CO2)C3)ccn1 [Example 3] | 100 to 1000 nM
7 | Cc1c(C(F)(F)F)nn(CC23CC(C(F)(F)F)(C2)C3)c1C(=O)Nc1ccnc(C(N)=O)c1 [Example 8, 4-(4-methyl-3-(trifluoromethyl)-1-((3-(trifluoromethyl)bicyclo [1.1.1]pentan-1-yl)methyl)-1H-pyrazole-5-carboxamido)picolinamide] | ≤ 100 nM
8 | CC12CC(Cn3nc(C4CC4)c(C(F)(F)F)c3C(=O)Nc3ccnc(S(C)(=O)=O)c3)(CO1)C2 [Example 23, 3-cyclopropyl-1-((1-methyl-2-oxabicyclo[2.1.1]hexan-4-yl)methyl)-N-(2-(methylsulfonyl)pyridin-4-yl)-4-(trifluoromethyl)-1H-pyrazole-5-carboxamide] | 100 to 1000 nM
9 | CS(=O)(=O)n1cc(NC(=O)c2c(C(F)(F)F)cnn2CC23CC(C2)C3)cn1 [Example 47, 1-(bicyclo [1.1.1]pentan-1-ylmethyl)-N-(1-(methylsulfonyl)-1H-pyrazol-4-yl)-4-(trifluoromethyl)-1H-pyrazole-5-carboxamide] | 1000 to 10000 nM
10 | CS(=O)(=O)c1cc(NC(=O)c2c(C(F)(F)F)c(C3CC3)nn2CC23CC(F)(C2)C3)ccn1 [Example 21, 3-cyclopropyl-1-((3-fluorobicyclo [1.1.1]pentan-1-yl)methyl)-N-(2-(methylsulfonyl)pyridin-4-yl)-4-(trifluoromethyl)-1H-pyrazole-5-carboxamide] | ≤ 100 nM
11 | COC12CC(Cn3nc(C4CC4)c(C(F)(F)F)c3C(=O)Nc3ccnc(S(C)(=O)=O)c3)(C1)C2 [Example 20] | 100 to 1000 nM
12 | Cc1c(C(C)(F)F)nn(CC2(C)CC(F)(F)CC2C)c1C(=O)Nc1ccnc(C(N)=O)c1 (single isomer, unassigned) [Example 10c, 4-(1-((4,4-difluoro-1,2-dimethylcyclopentyl)methyl)-3-(1,1-difluoroethyl)-4-methyl-1H-pyrazole-5-carboxamido)picolinamide] | ≤ 100 nM
13 | CC12COC(Cn3nc(C4CC4)c(C(F)(F)F)c3C(=O)Nc3ccnc(C(N)=O)c3)(C1)C2 [Example 16, 4-(3-cyclopropyl-1-((4-methyl-2-oxabicyclo[2.1.1]hexan-1-yl)methyl)-4-(trifluoromethyl)-1H-pyrazole-5-carboxamido)picolinamide] | ≤ 100 nM
14 | NC(=O)c1cc(NC(=O)c2c(C(F)(F)F)cnn2CC23CC(CO2)C3)ccc1F [Example 37, 1-((2-oxabicyclo[2.1.1]hexan-1-yl)methyl)-N-(3-carbamoyl-4-fluorophenyl)-4-(trifluoromethyl)-1H-pyrazole-5-carboxamide] | 1000 to 10000 nM
15 | NC(=O)c1cc(NC(=O)c2c(C(F)(F)F)c(C3CC3)nn2CC23CC(F)(C2)C3)ccn1 [Example 15, 4-(3-cyclopropyl-1-((3-fluorobicyclo [1.1.1]pentan-1-yl)methyl)-4-(trifluoromethyl)-1H-pyrazole-5-carboxamido)picolinamide] | ≤ 100 nM
16 | Cc1c(C(F)(F)F)nn(CC23CC(C(F)(F)F)(C2)C3)c1C(=O)Nc1ccnc(S(C)(=O)=O)c1 [Example 27, 4-methyl-N-(2-(methylsulfonyl)pyridin-4-yl)-3-(trifluoromethyl)-1-((3-(trifluoromethyl)bicyclo[1.1.1]pentan-1yl)methyl)-1H-pyrazole-5-carboxamide] | 100 to 1000 nM
17 | Cc1c(C(C)(F)F)nn(CC2(C)CC(F)(F)CC2C)c1C(=O)Nc1ccnc(C(N)=O)c1 (single isomer, unassigned) [Example 10a, 4-(1-((4,4-difluoro-1,2-dimethylcyclopentyl)methyl)-3-(1,1-difluoroethyl)-4-methyl-1H-pyrazole-5-carboxamido)picolinamide] | ≤ 100 nM
18 | COC12CC(Cn3nc(C4CC4)c(C(F)(F)F)c3C(=O)Nc3ccnc(C(N)=O)c3)(C1)C2 [Example 14, 4-(3-cyclopropyl-1-((3-methoxybicyclo[1.1.1]pentan-1-yl)methyl)-4-(trifluoromethyl)-1H-pyrazole-5-carboxamido)picolinamide] | 100 to 1000 nM
19 | Cc1nn(CC23CC(CO2)C3)c(C(=O)Nc2cccc(S(N)(=O)=O)c2)c1C(F)(F)F [Example 33, 1-((2-oxabicyclo [2.1.1]hexan-1-yl)methyl)-3-methyl-N-(3-sulfamoylphenyl)-4-(trifluoromethyl)-1H-pyrazole-5-carboxamide] | 1000 to 10000 nM
20 | Cc1c(C(C)(F)F)nn(CC2(C)CC(F)(F)CC2C)c1C(=O)Nc1ccnc(S(N)(=O)=O)c1 (single isomer, unassigned) [Example 43a, 1-((4,4-difluoro-1,2-dimethylcyclopentyl)methyl)-3-(1,1-difluoroethyl)-4-methyl-N-(2-sulfamoylpyridin-4-yl)-1H-pyrazole-5-carboxamide] | ≤ 100 nM
21 | NS(=O)(=O)c1cccc(NC(=O)c2c(C(F)(F)F)cnn2CC23CC(CO2)C3)c1 [Example 30, 1-((2-oxabicyclo[2.1.1]hexan-1-yl)methyl)-N-(3-sulfamoylphenyl)-4-(trifluoromethyl)-1H-pyrazole-5-carboxamide] | 1000 to 10000 nM
22 | Cc1nn(CC23CC(C(F)(F)F)(C2)C3)c(C(=O)Nc2ccnc(S(C)(=O)=O)c2)c1C(F)(F)F [Example 26, 3-methyl-N-(2-(methylsulfonyl)pyridin-4-yl)-4-(trifluoromethyl)-1-((3-(trifluoromethyl)bicyclo[1.1.1]pentan-1yl)methyl)-1H-pyrazole-5-carboxamide] | 100 to 1000 nM
23 | Cc1c(C(C)(F)F)nn(CC23CC(C(F)(F)F)(C2)C3)c1C(=O)Nc1ccnc(C(N)=O)c1 [Example 4] | ≤ 100 nM
24 | Cc1nn(CC23CC(C(F)(F)F)(C2)C3)c(C(=O)Nc2ccnc(C(N)=O)c2)c1C(F)(F)F [Example 18, 4-(3-methyl-4-(trifluoromethyl)-1-((3-(trifluoromethyl)bicyclo [1.1.1]pentan-1-yl)methyl)-1H-pyrazole-5-carboxamido)picolinamide] | ≤ 100 nM
